Test results reported in US20210254056A1, “IDENTIFICATION AND TARGETED MODULATION OF GENE SIGNALING NETWORKS” (CAMP4 THERAPEUTICS CORPORATION, priority 2017, published 2021).

What was measured:
[1] = test system: primary human hepatocytes; experiment: RNA-seq of primary human hepatocytes treated with 39 small molecules (pilot and validation); details: for RNA-seq fold Δ (Log2): primary human hepatocytes; for Expected fold Δ: fold expected from RNA-seq Log2
[2] = test system: primary human hepatocytes; experiment: qRT-PCR validation of gene expression in hepatocytes from a second donor; assay type: cell-based
Procedure: qRT-PCR was performed on samples of primary human hepatocytes from a second donor. […] The 58 liver disease associated genes analyzed were ACADVL, ACAT2, ACSL1, ACSL5, AGPAT2, AGTR1, AHSG, ALAS1, AMACR, ANGPTL2, ARG1, CA12, CA2, CIDEC, COL1A1, CPS1, CPT1A, CPT2, CYP21A2, CYP2C19, CYP3A4, CYP7A1, ECH1, ENO3, ETFDH, FABP1, FABP6, G6PC, GHR, GLA, GYS2, HGD, HMGCR, HMGCS2, HMOX1, HOGA1, HPGD, IFT27, LDHA, LPIN2, MOGAT2, NCF2, PCSK9, POR, RMRP, SLC25A20, SLC2A2, SLC37A4, SLC51B, SLC6A20, SLC6A6, SOAT2, SULT2A1, TAT, TDO2, TMEM135, TNFSF11, and VLDLR as shown in Example 2.

## CCOC(=O)N1c2ccc(C(F)(F)F)cc2[C@@H](N(Cc2cc(C(F)(F)F)cc(C(F)(F)F)c2)C(=O)OC)C[C@H]1CC [Torcetrapib]
[1]; ACAT2 gene
  RNA-seq fold Δ (Log2): 1.22 Log2
  Expected fold Δ: 2.33 fold
[1]; CYP7A1 gene
  RNA-seq fold Δ (Log2): −1.42 Log2
  Expected fold Δ: 0.37 fold
[1]; HMGCR gene
  RNA-seq fold Δ (Log2): 1.26 Log2
  Expected fold Δ: 2.39 fold
[1]; PCSK9 gene
  RNA-seq fold Δ (Log2): 1.07 Log2
  Expected fold Δ: 2.10 fold
[1]; TNFS11 gene
  RNA-seq fold Δ (Log2): 1.09 Log2
  Expected fold Δ: 2.13 fold
[2]; ACAT2 gene
  Fold Δ: 2.87 fold
[2]; CYP7A1 gene
  Fold Δ: 0.85 fold
[2]; HMGCR gene
  Fold Δ: 4.02 fold
[2]; PCSK9 gene
  Fold Δ: 5.76 fold
[2]; TNFS11 gene
  Fold Δ: 1.01 fold
